One data set deals with T1, Brd4 bromodomain 1 (Homo sapiens, UniProt O60885).
T1 construct: made in house; host or cells: E. coli BL21(DE3)
The experiment in a line: Inhibition of binding of tetra-acetylated histone H4 and Brd4 bromodomain 1 by TR-FRET. The conditions noted are these: His-tagged bromodomain 200 nM, biotinylated tetra-acetylated histone H4 peptide 25-50 nM, 2 hours at room temperature. The protocol: Proteins were cloned and overexpressed with a N-terminal 6×His tag, then purified by nickel affinity followed by size exclusion chromatography. Briefly, E. coli BL21(DE3) cells were transformed with a recombinant expression vector encoding N-terminally […] tagged bromodomains from Brd2, Brd3, or Brd4. Cell cultures were incubated at 37° C. with shaking to the appropriate density and induced overnight with IPTG. The supernatant of lysed cells was loaded onto Ni-IDA column for purification. Eluted protein was pooled, concentrated and further purified by size exclusion chromatography. Fractions representing monomeric protein were pooled, concentrated, aliquoted, and frozen at −80° C. for use in subsequent experiments.
For inhibition assays, serially diluted test compound was added to these reactions in a 0.2% final concentration of DMSO. Final buffer concentrations were 30 mM HEPES pH 7.4, 30 mM NaCl, 0.3 mM CHAPS, 20 mM phosphate pH 7.0, 320 mM KF, 0.08% BSA). […] The binding inhibitory activity was shown by a decrease in 665 nm fluorescence relative to 620 nm. IC50 values were determined from a dose response curve.
(In general: In TR-FRET formats the signal depends on donor and acceptor labels being close together.)

Structures are written as SMILES.

The term melting point denotes the temperature of the solid-liquid transition. For the compound `O=c1[nH]c(-c2ccc(O)cc2)cc2ccccc12` [Example 1, 3-(4-Hydroxyphenyl)-2H-isoquinolin-1-one], the melting point fell in the range of 239 to 241 °C. At Brd4 bromodomain 1, the “FRET activity (<50 uM)” value is recorded as “Active”.

Compound `COc1cc(OC)c2c(=O)[nH]c(-c3ccc(O)cc3)cc2c1` [Example 3, 3-(4-hydroxyphenyl)-6,8-dimethoxyisoquinolin-1(2H)-one] yielded a melting point of 245 to 247 °C. The “FRET activity (<50 uM)” value on Brd4 bromodomain 1 is “Active”.

In turn, `COc1cc(OC)c2c(=O)[nH]c(-c3cc(C)c(OCC(C)(C)O)c(C)c3)cc2c1` [Example 11, 3-(4-(2-hydroxy-2-methylpropoxy)-3,5-dimethylphenyl)-6,8-dimethoxyisoquinolin-1(2H)-one] gave a melting point of 252 to 254 °C. Besides, at Brd4 bromodomain 1, the “FRET activity (<50 uM)” value is listed as “Active”.

The compound `COc1cc2c(c(OC)c1)S(=O)(=O)NC(c1cc(C)c(O)c(C)c1)=C2` [Example 12, 6,8-dimethoxy-3-(4-hydroxy-3,5-dimethylphenyl)-2H-1,2-benzothiazine-1,1-dioxide] came in with a melting point of 246.6 to 247.4 °C. In addition, the “FRET activity (<50 uM)” value at Brd4 bromodomain 1 is on record as “Active”.

Take `COc1cc(OC)c2c(=O)[nH]c(-c3cc(C(C)(C)C)c(O)c(C(C)(C)C)c3)nc2c1` [Example 23, 2-(3,5-di-tert-butyl-4-hydroxyphenyl)-5,7-dimethoxyquinazolin-4(3H)-one]: the melting point lay within 229.7 to 230.5 °C. Further, on Brd4 bromodomain 1, the “FRET activity (<50 uM)” value is “Inactive”.

`COc1cc(OC)cc(-c2nc3cc(OC)cc(OC)c3c(=O)[nH]2)c1` [Example 24, 2-(3,5-dimethoxyphenyl)-5,7-dimethoxyquinazolin-4(3H)-one]: the melting point lay within 270 to 272 °C. The “FRET activity (<50 uM)” value on Brd4 bromodomain 1 is reported as “Inactive”.

On to `COc1ccc(-c2nc3cc(OC)cc(OC)c3c(=O)[nH]2)cc1` [Example 25, 5,7-dimethoxy-2-(4-methoxyphenyl)quinazolin-4(3H)-one], for which the melting point lay within 276 to 277 °C. Moreover, the “FRET activity (<50 uM)” value on Brd4 bromodomain 1 was “Inactive”.

`COc1cc(OC)c2c(=O)[nH]c(-c3ccc(O)c(OC)c3)nc2c1` [Example 26, 2-(4-hydroxy-3-methoxyphenyl)-5,7-dimethoxyquinazolin-4(3H)-one] yielded a melting point of 294 to 296 °C. In addition, the “FRET activity (<50 uM)” value on Brd4 bromodomain 1 was “Active”.

The compound `COc1cc(OC)c2c(=O)[nH]c(-c3ccc(O)c(Cl)c3)nc2c1` [Example 27, 2-(3-chloro-4-hydroxyphenyl)-5,7-dimethoxyquinazolin-4(3H)-one] returned a melting point of 279 to 281 °C. The “FRET activity (<50 uM)” value at Brd4 bromodomain 1 is “Active”.

For `Cc1cc(-c2nc3ccccc3c(=O)[nH]2)cc(C)c1OCCO` [Example 30, 2-(4-(2-hydroxyethoxy)-3,5-dimethylphenyl)quinazolin-4(3H)-one], the melting point fell in the range of 260 to 261 °C. In addition, at Brd4 bromodomain 1, the “FRET activity (<50 uM)” value was “Inactive”.

Regarding `O=c1[nH]c(-c2ccc3c(c2)OCCO3)nc2ccccc12` [Example 31, 2-(2,3-dihydrobenzo[b][1,4]dioxin-6-yl)quinazolin-4(3H)-one], the melting point was 267 to 268 °C (dec.). The “FRET activity (<50 uM)” value on Brd4 bromodomain 1 is on record as “Inactive”.

In the case of `COc1cc(OC)c2c(=O)[nH]c(-c3ccc(N(C)C)c4ccccc34)nc2c1` [Example 32, 2-(4-(dimethylamino)naphthalen-1-yl)-5,7-dimethoxyquinazolin-4(3H)-one], the melting point was 269 to 271 °C. The “FRET activity (<50 uM)” value on Brd4 bromodomain 1 is on record as “Inactive”.

Compound `COc1cc(OC)c2c(=O)[nH]c(-c3ccc(OCC(N)=O)cc3)nc2c1` [Example 33, 2-(4-(5,7-dimethoxy-4-oxo-3,4-dihydroquinazolin-2-yl)phenoxy)acetamide] returned a melting point of 309 to 311 °C. At Brd4 bromodomain 1, the “FRET activity (<50 uM)” value is “Active”.

In turn, `O=C(O)COc1ccc(-c2nc3ccccc3c(=O)[nH]2)cc1` [Example 34, 2-(4-(4-oxo-3,4-dihydroquinazolin-2-yl)phenoxy)acetic acid] gave a melting point of 285 to 287 °C. For the same compound, the “FRET activity (<50 uM)” value on Brd4 bromodomain 1 is given as “Inactive”.

`CN(C)c1ccc(-c2nc3ccccc3c(=O)[nH]2)c2ccccc12` [Example 35, 2-(4-(dimethylamino)naphthalen-1-yl)quinazolin-4(3H)-one] showed a melting point of 224 to 226 °C. Besides, the “FRET activity (<50 uM)” value at Brd4 bromodomain 1 is listed as “Inactive”.

On to `NC(=O)COc1ccc(-c2nc3ccccc3c(=O)[nH]2)cc1` [Example 36, 2-(4-(4-oxo-3,4-dihydroquinazolin-2-yl)phenoxy)acetamide], for which the melting point was in the range of 277.5 to 278.5 °C. In addition, the “FRET activity (<50 uM)” value on Brd4 bromodomain 1 was “Inactive”.

`COc1cc(OC)c2c(=O)[nH]c(-c3ccc4c(c3)OCCO4)nc2c1` [Example 37, 2-(2,3-dihydrobenzo[b][1,4]dioxin-6-yl)-5,7-dimethoxyquinazolin-4(3H)-one]: the melting point was in the range of 307.5 to 309.6 °C. Also, the “FRET activity (<50 uM)” value on Brd4 bromodomain 1 is on record as “Active”.

With `COc1cc2nc(-c3ccc(N(C)C)c4ccccc34)[nH]c(=O)c2cc1OC` [Example 39], the melting point was in the range of 235.5 to 236.5 °C.

With `O=c1[nH]c(-c2ccc(N(CCO)CCO)cc2)nc2ccccc12` [Example 40, 2-(4-(bis(2-hydroxyethyl)amino)phenyl)quinazolin-4(3H)-one], the melting point was 228 to 230 °C. Besides, at Brd4 bromodomain 1, the “FRET activity (<50 uM)” value was “Inactive”.

`COc1cc(OC)c2c(=O)[nH]c(-c3ccc(N(CCO)CCO)cc3)nc2c1` [Example 41, 2-(4-(bis(2-hydroxyethyl)amino)phenyl)-5,7-dimethoxyquinazolin-4(3H)-one] came in with a melting point of 249 to 251 °C. On Brd4 bromodomain 1, the “FRET activity (<50 uM)” value is given as “Active”.

In turn, `COc1cc2nc(-c3ccc(N(CCO)CCO)cc3)[nH]c(=O)c2cc1OC` [Example 42, 2-(4-(bis(2-hydroxyethyl)amino)phenyl)-6,7-dimethoxyquinazolin-4(3H)-one] registered a melting point of 268 to 270 °C.

Consider `COc1cc2nc(-c3ccc4c(c3)OCCO4)[nH]c(=O)c2cc1OC` [Example 43, 2-(2,3-dihydrobenzo[b][1,4]dioxin-6-yl)-6,7-dimethoxyquinazolin-4(3H)-one], for which the melting point lay within 316.4 to 318.2 °C. Besides, at Brd4 bromodomain 1, the “FRET activity (<50 uM)” value is “Inactive”.

Regarding `COc1cc(OC)c2c(=O)[nH]c(-c3cc(C)c(OCCN4CCOCC4)c(C)c3)cc2n1` [Example 45, 7-(3,5-dimethyl-4-(2-morpholinoethoxy)phenyl)-2,4-dimethoxy-1,6-naphthyridin-5(6H)-one], the melting point lay in the range of 212.5 to 212.9 °C. Moreover, the “FRET activity (<50 uM)” value on Brd4 bromodomain 1 was “Active”.

`COc1cc2nc(-c3cc(C)c(O)c(C)c3)[nH]c(=O)c2cc1OC` [Example 47, 2-(4-hydroxy-3,5-dimethylphenyl)-6,7-dimethoxyquinazolin-4(3H)-one]: the melting point was over 300 °C. The “FRET activity (<50 uM)” value on Brd4 bromodomain 1 is “Active”.

`COc1cc(OC)c2c(=O)[nH]c(-c3ccc(CCC(=O)O)cc3)nc2c1` [Example 48, 3-(4-(5,7-dimethoxy-4-oxo-3,4-dihydroquinazolin-2-yl)phenyl)propanoic acid] returned a melting point of 250.6 to 251.1 °C. For the same compound, the “FRET activity (<50 uM)” value on Brd4 bromodomain 1 is “Active”.

`CC(=O)Nc1ccc2nc(-c3cc(C)c(O)c(C)c3)[nH]c(=O)c2c1` [Example 49, N-(2-(4-hydroxy-3,5-dimethylphenyl)-4-oxo-3,4-dihydroquinazolin-6-yl)acetamide]: the melting point was 336.5 °C (dec.). The “FRET activity (<50 uM)” value on Brd4 bromodomain 1 was “Inactive”.

`COc1cc2nc(-c3cc(C)c(OCC(N)=O)c(C)c3)[nH]c(=O)c2cc1OC` [Example 50, 2-(4-(6,7-dimethoxy-4-oxo-3,4-dihydroquinazolin-2-yl)-2,6-dimethylphenoxy)acetamide]: the melting point was in the range of 354 to 356 °C. For the same compound, the “FRET activity (<50 uM)” value on Brd4 bromodomain 1 was “Inactive”.

Turning to `COc1cc(OC)c2c(=O)[nH]c(-c3ccc(OCCO)c(Cl)c3)nc2c1` [Example 51, 2-(3-chloro-4-(2-hydroxyethoxy)phenyl)-5,7-dimethoxyquinazolin-4(3H)-one], the melting point was 287 to 288 °C (dec.). On Brd4 bromodomain 1, the “FRET activity (<50 uM)” value is “Inactive”.

With `COc1cc(OC)c2c(=O)[nH]c(-c3ccc(OCCO)c(OC)c3)nc2c1` [Example 52, 2-(4-(2-hydroxyethoxy)-3-methoxyphenyl)-5,7-dimethoxyquinazolin-4(3H)-one], the melting point fell in the range of 246 to 248 °C.

In turn, `COc1cc2nc(-c3cc(C)c(OCCO)c(C)c3)[nH]c(=O)c2cc1OC` [Example 53, 2-(4-(2-hydroxyethoxy)-3,5-dimethylphenyl)-6,7-dimethoxyquinazolin-4(3H)-one] showed a melting point of over 300 °C. Moreover, the “FRET activity (<50 uM)” value at Brd4 bromodomain 1 is reported as “Inactive”.

The compound `COc1cc(OC)c2c(=O)[nH]c(-c3cc(C)c(NC(=O)CO)c(C)c3)nc2c1` [Example 55, N-(4-(5,7-dimethoxy-4-oxo-3,4-dihydroquinazolin-2-yl)-2,6-dimethylphenyl)-2-hydroxyacetamide] returned a melting point of 190 to 192 °C. The “FRET activity (<50 uM)” value at Brd4 bromodomain 1 is recorded as “Active”.

The compound `COc1cc(OC)c2c(=O)[nH]c(-c3cc(C)c(OCCO)c(C)c3)cc2n1` [Example 56, 7-(4-(2-hydroxyethoxy)-3,5-dimethylphenyl)-2,4-dimethoxy-1,6-naphthyridin-5(6H)-one] returned a melting point of 224.9 to 225.4 °C.

For the origin of these results see US20130281397A1, “TREATMENT OF DISEASES BY EPIGENETIC REGULATION” (RVX Therapeutics Inc., priority 2012, published 2013).
